Common to all, as to assay type: functional
Assay [1] can be described thus: Antioxidant activity assessed as reducing power at 0.5 to 2 mg/ml.
The test system of assay [2] is Radical scavenging activity. The experiment in a line: Antioxidant activity assessed as DPPH radical scavenging activity at 2 mg/ml. A general note: Loss of DPPH colour is used to gauge radical scavenging.
The test system of assay [3] is Radical scavenging activity. Briefly: Antioxidant activity assessed as DPPH radical scavenging activity.
A short description of assay [4]: Antioxidant activity assessed as superoxide anion radical scavenging activity at 2 mg/ml.
Assay [5] can be described thus: Antioxidant activity assessed as hydroxyl radical scavenging activity at 2 mg/ml.
Assay [6] can be described thus: Antioxidant activity assessed as hydroxyl radical scavenging activity.

The record followed here is ChEMBL document CHEMBL2424654, “Optimization of enzyme-based ultrasonic/microwave-assisted extraction and evaluation of antioxidant activity of orcinol glucoside from the rhizomes of Curculigo orchioides Gaertn” (Med Chem Res, 2013).

For orientation: IC50 means the concentration that gives 50% inhibition.

≈ marks a conversion by molar mass, not a printed value. Calls of active or inactive are those of the source. The calls are words filed in the database; no cut-off is given here.

With `Cc1cc(O)cc(O[C@@H]2O[C@H](CO)[C@@H](O)[C@H](O)[C@H]2O)c1`, the result in assay [1] was Active. For the same molecule, the Activity was 69.3% in assay [2], 70.2% in assay [4], 77.5% in assay [5] and “Dose-dependent effect” in assay [6]. For the same molecule, the IC50 in assay [3] came to 900 µg/mL (≈ 3.14 mM).
